Consider five molecules from patent US6452032B1, “Organosilyl compounds having nuclear hormone receptor modulating activity” (Allergan Sales, LLC, priority 1999, dated 2002).

Like-named read-outs stand apart in the source and are kept apart here.

Test [1] deals with T1, RARβ (Homo sapiens, UniProt P10826).
T1 construct: expressed in transfected cells
T1 sequence (P10826 1-455): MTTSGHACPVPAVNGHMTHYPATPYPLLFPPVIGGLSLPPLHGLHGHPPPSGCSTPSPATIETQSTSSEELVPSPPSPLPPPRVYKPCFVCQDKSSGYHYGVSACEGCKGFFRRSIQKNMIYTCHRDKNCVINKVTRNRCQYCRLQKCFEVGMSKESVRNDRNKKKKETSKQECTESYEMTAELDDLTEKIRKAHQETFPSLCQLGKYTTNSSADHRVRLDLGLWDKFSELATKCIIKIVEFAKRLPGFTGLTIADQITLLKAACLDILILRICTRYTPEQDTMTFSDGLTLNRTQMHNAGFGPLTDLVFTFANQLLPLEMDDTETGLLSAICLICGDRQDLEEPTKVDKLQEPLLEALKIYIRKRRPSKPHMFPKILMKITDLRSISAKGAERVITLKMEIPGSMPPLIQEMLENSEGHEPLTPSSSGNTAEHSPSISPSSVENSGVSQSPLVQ
Put plainly: Transactivation assay, luciferase reporter, full length RARβ. The test is classed as cell-based. As to the method:
(§1) Retinoic acid receptor transactivation activity and binding efficiencies were determined essentially as described in U.S. Pat. Nos.: 5,298,429 and 5,071,773, incorporated by reference herein. Transactivation assays employed expression plasmids encoding the full length receptors RARα, RARβ, RARγ, RXRα, RXRβ, and RXRγ. Reporter plasmids contained the herpes virus thymidine kinase promoter and the appropriate retinoid acid receptor response element (RAREs) or retinoid X receptor response element (RXREs) positioned upstream of an open coding region encoding firefly luciferase.
(§2) These compounds are designated AGN 192192, AGN 192337, AGN 192294, AGN 192295, and AGN 192452, respectively. EC50 designates the concentration of the tested compound which was able to give a 50% maximal transcription of the reporter gene; KD50 indicates the concentration of the tested compound at which 50% of the compound molecules are bound to the receptor. NT indicates those points that were not tested in the particular experiment.

For test [2], the target named is T2, RXRγ (Homo sapiens, UniProt P48443).
T2 construct: encoding the full length receptors RARα, RARβ, RARγ, RXRα, RXRβ, and RXRγ; expressed in transfected cells
T2 sequence (P48443 1-463): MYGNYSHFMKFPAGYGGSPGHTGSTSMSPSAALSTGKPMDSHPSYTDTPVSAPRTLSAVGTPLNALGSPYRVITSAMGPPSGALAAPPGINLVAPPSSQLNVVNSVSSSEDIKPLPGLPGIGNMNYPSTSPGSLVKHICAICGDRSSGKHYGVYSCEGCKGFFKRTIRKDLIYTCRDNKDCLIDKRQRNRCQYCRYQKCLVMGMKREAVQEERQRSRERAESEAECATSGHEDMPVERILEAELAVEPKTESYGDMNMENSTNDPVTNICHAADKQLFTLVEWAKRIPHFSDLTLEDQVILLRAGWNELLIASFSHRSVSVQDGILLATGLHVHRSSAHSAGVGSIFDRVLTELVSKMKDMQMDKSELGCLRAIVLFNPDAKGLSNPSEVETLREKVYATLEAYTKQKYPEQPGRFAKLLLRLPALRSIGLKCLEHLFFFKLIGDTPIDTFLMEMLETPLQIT
Briefly: Transactivation assay, luciferase reporter, full length RXRγ. The test is classed as cell-based. The conditions noted are these: concentration giving 50% maximal transcription of the reporter gene; read-out: Trans (EC50) RXRγ. Here is the method: as §1, §2

The target of test [3] is T1, RARβ. Put plainly: Competition binding assay, radiolabeled all-trans-retinoic acid, RARβ. As to the method:
(§3) Binding assays were performed using a classic competition assay format in which cloned receptor RAR mand RXR molecules were first loaded with either radiolabeled all-trans-retinoic acid (RAR) or radiolabeled 9-cis retinoic acid (RXR), and then the amount of radioactivity liberated with increasing concentration of test compound was measured.
as §2

Test [4] concerns the target T3, RXRβ (Homo sapiens, UniProt P28702).
T3 construct: encoding the full length receptors RARα, RARβ, RARγ, RXRα, RXRβ, and RXRγ; expressed in transfected cells
T3 sequence (P28702 1-533): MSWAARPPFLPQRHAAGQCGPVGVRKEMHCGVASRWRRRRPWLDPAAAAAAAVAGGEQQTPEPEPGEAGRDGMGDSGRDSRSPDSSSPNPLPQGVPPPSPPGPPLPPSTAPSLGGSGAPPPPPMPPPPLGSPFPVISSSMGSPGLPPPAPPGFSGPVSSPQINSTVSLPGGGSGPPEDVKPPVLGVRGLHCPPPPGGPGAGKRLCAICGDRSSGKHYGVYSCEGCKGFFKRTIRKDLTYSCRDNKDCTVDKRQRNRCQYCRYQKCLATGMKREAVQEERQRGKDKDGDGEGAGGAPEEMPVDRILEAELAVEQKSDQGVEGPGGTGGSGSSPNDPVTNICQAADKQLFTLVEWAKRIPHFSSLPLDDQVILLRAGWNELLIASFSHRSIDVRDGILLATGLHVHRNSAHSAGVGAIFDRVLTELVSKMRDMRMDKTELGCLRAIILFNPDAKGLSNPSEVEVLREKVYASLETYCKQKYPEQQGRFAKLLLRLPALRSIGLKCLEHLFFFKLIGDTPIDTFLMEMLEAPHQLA
Briefly: Competition binding assay, radiolabeled 9-cis retinoic acid, RXRβ. The conditions noted are these: competition with radiolabeled 9-cis retinoic acid; read-out: Bind (KD50) RXRβ. Here is the method:
as §3, §2

The target in test [5] is T4, RXRα (Homo sapiens, UniProt P19793).
T4 construct: encoding the full length receptors RARα, RARβ, RARγ, RXRα, RXRβ, and RXRγ; expressed in transfected cells
T4 sequence (P19793 1-462): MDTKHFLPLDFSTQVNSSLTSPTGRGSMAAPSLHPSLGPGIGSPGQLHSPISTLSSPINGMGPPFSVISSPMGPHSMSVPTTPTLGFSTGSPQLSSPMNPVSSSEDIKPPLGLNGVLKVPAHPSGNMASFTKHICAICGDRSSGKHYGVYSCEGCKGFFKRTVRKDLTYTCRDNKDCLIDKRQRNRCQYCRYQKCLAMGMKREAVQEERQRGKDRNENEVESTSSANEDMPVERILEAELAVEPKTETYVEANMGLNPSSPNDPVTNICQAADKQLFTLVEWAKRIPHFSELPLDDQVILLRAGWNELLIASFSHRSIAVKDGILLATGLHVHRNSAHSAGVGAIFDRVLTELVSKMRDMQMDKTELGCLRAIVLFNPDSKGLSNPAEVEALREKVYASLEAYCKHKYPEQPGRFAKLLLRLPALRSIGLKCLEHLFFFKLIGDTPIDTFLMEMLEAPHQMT
Briefly: Competition binding assay, radiolabeled 9-cis retinoic acid, RXRα. The conditions noted are these: competition with radiolabeled 9-cis retinoic acid; read-out: Bind (KD50) RXRα. As to the method: as §3, §2

The target of test [6] is T5, RARα (Homo sapiens, UniProt P10276).
T5 sequence (P10276 1-462): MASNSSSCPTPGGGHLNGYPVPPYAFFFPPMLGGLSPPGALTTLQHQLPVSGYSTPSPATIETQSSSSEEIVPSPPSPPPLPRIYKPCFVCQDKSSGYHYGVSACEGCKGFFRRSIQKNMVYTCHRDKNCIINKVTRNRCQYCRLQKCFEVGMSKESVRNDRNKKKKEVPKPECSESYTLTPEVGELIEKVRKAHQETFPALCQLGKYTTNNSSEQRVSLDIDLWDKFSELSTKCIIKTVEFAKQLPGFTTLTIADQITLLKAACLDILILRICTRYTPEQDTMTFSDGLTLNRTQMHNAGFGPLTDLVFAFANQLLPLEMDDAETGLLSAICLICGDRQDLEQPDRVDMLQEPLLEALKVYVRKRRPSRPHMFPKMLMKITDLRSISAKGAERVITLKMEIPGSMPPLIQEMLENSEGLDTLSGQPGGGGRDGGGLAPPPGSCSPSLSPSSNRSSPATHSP
Put plainly: Transactivation assay, luciferase reporter, full length RARα. The test is classed as cell-based. The conditions noted are these: concentration giving 50% maximal transcription of the reporter gene; read-out: Trans (EC50) RARα. As to the method:
as §1, §2
(In general: In a reporter assay the amount or activity of a reporter protein is the signal.)

In test [7] the target is T2, RXRγ. Put plainly: Competition binding assay, radiolabeled 9-cis retinoic acid, RXRγ. The conditions noted are these: competition with radiolabeled 9-cis retinoic acid; read-out: Bind (KD50) RXRγ. Here is the method: as §3, §2
Test [8] concerns the target T3, RXRβ. Briefly: Transactivation assay, luciferase reporter, full length RXRβ. The test is classed as cell-based. The conditions noted are these: concentration giving 50% maximal transcription of the reporter gene; read-out: Trans (EC50) RXRβ. Here is the method:
as §1, §2

For test [9], the target named is T6, RARγ (Homo sapiens, UniProt P13631).
T6 sequence (P13631 1-454): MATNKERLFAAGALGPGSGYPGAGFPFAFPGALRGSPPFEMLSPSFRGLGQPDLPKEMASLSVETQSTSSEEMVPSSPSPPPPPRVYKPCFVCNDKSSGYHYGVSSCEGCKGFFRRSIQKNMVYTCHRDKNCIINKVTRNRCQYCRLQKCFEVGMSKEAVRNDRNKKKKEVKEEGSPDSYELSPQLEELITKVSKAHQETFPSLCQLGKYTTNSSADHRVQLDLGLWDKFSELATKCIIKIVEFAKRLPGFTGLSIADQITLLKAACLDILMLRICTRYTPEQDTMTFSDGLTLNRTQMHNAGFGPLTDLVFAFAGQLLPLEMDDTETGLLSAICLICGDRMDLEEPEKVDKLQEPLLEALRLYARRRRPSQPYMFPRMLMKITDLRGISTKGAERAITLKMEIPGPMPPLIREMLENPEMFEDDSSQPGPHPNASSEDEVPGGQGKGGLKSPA
Put plainly: Competition binding assay, radiolabeled all-trans-retinoic acid, RARγ. Here is the method: as §3, §2

Test [10] concerns the target T5, RARα. Briefly: Competition binding assay, radiolabeled all-trans-retinoic acid, RARα. Here is the method: as §3, §2
Test [11] has as its target T4, RXRα. Put plainly: Transactivation assay, luciferase reporter, full length RXRα. The test is classed as cell-based. The settings on record: concentration giving 50% maximal transcription of the reporter gene; read-out: Trans (EC50) RXRα. As to the method: as §1, §2
In test [12] the target is T6, RARγ. Put plainly: Transactivation assay, luciferase reporter, full length RARγ. The test is classed as cell-based. As to the method: as §1, §2
[13] abbreviates: concentration giving 50% maximal transcription of the reporter gene, read-out: Trans (EC50) RARβ.
Where [14] appears, read: competition with radiolabeled all-trans-retinoic acid, read-out: Bind (KD50) RARβ.
[15] abbreviates: competition with radiolabeled all-trans-retinoic acid, read-out: Bind (KD50) RARγ.
Setting [16] is: competition with radiolabeled all-trans-retinoic acid, read-out: Bind (KD50) RARα.

As usually defined, the EC50 is the midpoint of the concentration-response curve. For `Cc1cc2c(cc1/C(=C/c1ccc(C(=O)C(=O)O)cc1)[Si](C)(C)C)C(C)(C)CCC2(C)C` [Compound 192192], the EC50 in test [1] (setting [13]) worked out at 88 nM; in test [2], 960 nM; in [6], 550 nM; in test [8] it was 780 nM; in test [11], 990 nM. The Kd in [3] (setting [14]) was 699 nM; in test [4] it was over 1000 nM; in test [5], over 1000 nM; in test [7], over 1000 nM; in [9] (setting [15]), 2020 nM; in test [10] (setting [16]), 2640 nM.
Turning to `Cc1cc2c(cc1/C(=C/c1ccc(C(=O)O)s1)[Si](C)(C)C)C(C)(C)CCC2(C)C` [Compound 192294], the Kd in test [3] (setting [14]) turned out to be 8000 nM; in [9] (setting [15]), 8940 nM.
On to `CC1(C)CCC(C)(C)c2cc(/C(=C/c3ccc(C(=O)O)s3)[Si](C)(C)C)ccc21` [Compound 192295], for which the EC50 in test [1] (setting [13]) was determined as 290 nM; in test [6], 350 nM; in [12] (concentration giving 50% maximal transcription of the reporter gene, read-out: Trans (EC50) RARγ), 330 nM. For the same molecule, the Kd in test [3] (setting [14]) was 499 nM; in [9] (setting [15]), 1550 nM; in test [10] (setting [16]), 1300 nM.
Turning to `CC1(C)CCC(C)(C)c2cc(/C(=C/c3ccc(C(=O)C(=O)O)cc3)[Si](C)(C)C)ccc21` [Compound 192337], the figures for the EC50 in [1] and in [12] were 260 nM and 1500 nM, respectively. Further, the Kd in test [3] came out at 2430 nM; in test [9] it was 5840 nM; in [10] it was 2280 nM.
For `CC1(C)CC(C)(C)c2cc(/C(=C/c3ccc(C(=O)C(=O)O)cc3)[Si](C)(C)C)ccc2O1` [Compound 192452], the values for the EC50 in [2] and in test [11] were 2900 nM and 3100 nM, respectively. Besides, the Kd in test [3] (setting [14]) came out at 3300 nM; in test [9] (setting [15]), 4520 nM.
